# Like-named read-outs stand apart in the source and are kept apart here.
# Columns and labels:
# [1] = system: arctic ground squirrel (AGS); conditions: CHA i.p. or into the lateral ventricle (icv), cited from earlier work
# [2] = system: arctic ground squirrel (AGS); assay: CHA-induced torpor and hypothermic response in arctic ground squirrel; assay type: in vivo; conditions: CHA 0.1 mg/kg i.p.; trough vs peak in euthermic Tb,sc; p<0.05, n=6; FIG. 2B
# Source text: Adenosine is a neuroprotective by-product of cellular metabolism that accumulates and is released from the brain during traumatic events (Dunwiddie and Masino, 2001). Under nonpathologic conditions, adenosine functions as a bioenergetic network regulator (Boison et al., 2011), and as a neuromodulator with key roles in sleep, thermoregulation and hibernation (Drew and Jinka, 2012) via a family of G protein-coupled receptors (GPCR). Torpor onset in the arctic ground squirrel (AGS) is regulated within the CNS by A1AR signaling and depends on a seasonal change in sensitivity to agonists (Jinka et al., 2011). […] Moreover, CHA-induced torpor is similar to spontaneous torpor with regard to the magnitude and temporal profile of metabolic suppression and Tb decline. A seasonally regulated decrease in Tb during rest in euthermic (non-hibernating) AGS predicts onset of torpor and an increased hypothermic response to CHA. Thus, Tb in animals at rest is a biomarker of enhanced sensitivity to A1AR signaling (FIG. 2). This relationship between Tb and sensitivity to CHA is observed in rats as well as in AGS as disclosed herein.
# Spontaneous torpor is indicated by abrupt decreases in Tb,sc below about 30° C.
# Male Sprague-Dawley rats [3] = assay: Sustained hypothermia in conscious rats, drug delivery via sequential i.p. injections; assay type: in vivo
# [4] = system: dietary restricted (DR) rats; assay: Induction of hypothermia by intermittent CHA and 8-SPT in ad libitum fed and dietary restricted rats; assay type: in vivo, rat
# Protocol: First, shivering is alleviated through stimulation of central A1AR. Second, the Tb minimum and rate of cooling following stimulation of A1AR in the CNS can be controlled through manipulation of ambient temperature without external or internal cooling. These principles were used to develop methods for inducing hypothermia in dietary restricted (DR) rats (FIG. 3B). In FIG. 3, the magnitude and rate of cooling was controlled by adjusting ambient temperature (i.e., 16° C.) and regulating sensitivity to CHA through DR (every other day feeding, see FIG. 3B). Peripheral side effects were minimized by co-administration of 8-SPT (2.5 mg/kg i.p.) 15 min prior to CHA (0.5 mg/kg, i.p.). […].
# Male Sprague-Dawley rats [5] = assay: Continuous CHA delivery through iPRECIO pumps at Ta 16° C. or 25° C., with 8-SPT injection; assay type: in vivo, rat; conditions: for mean minimum Tb: continuous CHA via SQ minipump, equivalent to 1 mg/kg every 4 hr, 24 hr
# Protocol: To determine if the effects of CHA on heart rate were due to direct effects of CHA on the heart or to the effects of tissue temperature, programmable minipumps were employed to deliver CHA continuously for 24 hr at an ambient temperature of 25° C. and 16° C. […] For these experiments a separate group of rats was instrumented with programmable iPRECIO® pumps (DSI, St. Paul, Minn.). CHA was dissolved in 25% (w/v) hydroxypropyl-β-cyclodextrin (CD) in sterile water and 8-SPT was dissolved in 0.9% saline. Pumps delivered the same mass of CHA as in the first experiment (6 mg/kg over a 24 hr period), however, in this case CHA was delivered at a constant rate of 30 μL/hr. Heart rate (HR) and hemoglobin saturation (sO2) was monitored using a pulse oximeter every 10 min for 1 hr following a single injection of 8-SPT (25 mg/kg, i.p.) or vehicle as indicated. As before, animals in both treatment and control groups were moved to an ambient temperature (Ta) of 16° C. or 25° C. the day before the experiment and remained at this Ta until return to a Ta of 20° C., 4 hr after the end of drug delivery. Drug and vehicle treatments were administered to all animals using a balanced cross-over design. At least 1 week separated CHA and vehicle (CD) treatment and 1 hr separated 8-SPT and vehicle (saline) injections. A pulse oximeter (Vet/Ox […], Model 72042A3 Sensor Devices Inc., Lancaster, Pa.) was used to monitor heart rate (HR) and sO2. Pulse oximetry was acquired via a sensor on the paw.
# [6] = system: rats subjected to 8 min of asphyxial cardiac arrest; assay: Therapeutic hypothermia in rats subjected to 8 min asphyxial cardiac arrest; assay type: in vivo, rat
# Protocol: Rats aged 68-75 days were subjected to 8 min of asphyxial cardiac arrest and animals that were resuscitated within 120 sec and met additional inclusion criteria 60 min after ROSC (Table 1) were randomly allocated to a therapeutic hypothermia (TH) or a normothermic control (NC) group using a computer-generated randomization schedule without knowledge of outcome. Treatment commenced 70 min after restoration of spontaneous circulation (ROSC).
# Animals assigned to the TH group were moved to 16° C. and CHA and 8-SPT delivered as described above for Drug delivery via sequential IP injections. Animals assigned to the NC group were moved to a neonatal incubator set to 29° C. and vehicles (PB and saline) delivered as described above for the control group. At the end of 24 hr the rats were moved to and housed an ambient temperature of 20° C. for 7 days until they were euthanized for tissue collection. Body temperature was monitored prior to each injection throughout treatment and daily thereafter using sc IPTT-300 transponders (BioMedic Data Systems, Inc. Seaford, Del.).
# ACA was induced as described by Dave et al., 2006. Animals were anesthetized with 5% isofluorane and a 30:70 mixture of O2 and N2O followed by endotracheal intubation and mechanical ventilation. The femoral vein and artery were cannulated for continuous blood pressure monitoring and blood gas analysis. ECG leads were attached to the limbs. Physiological variables, including but not limited to PaCO2, PaO2, and pH were maintained within normal limits by adjusting respiratory rate and volume. MABP and ECG were monitored continuously. Temporalis muscle and rectal temperatures were maintained at 36.5-37.5° C. by heating lamps and Omega (Stamford, Conn.) T-CSC32 temperature controllers. To induce cardiac arrest, vecuronium (1 mg/kg) was injected I.V. and apnea was induced by disconnecting the ventilator from the endotracheal tube. Resuscitation was initiated by reconnecting the ventilator, administering epinephrine (0.01 mg/kg, I.V.) and sodium bicarbonate (1 mg/kg, I.V.) mechanically ventilating with 100% O2 at a rate of 80 bpm and manual chest compressions until MABP reached 50 mm Hg and was maintained by a spontaneously beating heart for more than 10 sec. After 10 min of ROSC, ventilation was decreased to 60 bpm and O2 lowered to 30%. Naïve animals were subjected to similar surgical procedures except that the ventilator was not disconnected from the endotracheal tube.
# Post-operative (post-op) rats subjected to 6 min and 8 min CA and not assigned to hypothermia experiments were placed in a neonatal incubator overnight with only water provided (0.9% saline, I.P. based off […] body weight was injected at the end of surgery to prevent dehydration). After 8-16 hr, animals were fed, weighed, cleaned, and had neurological deficit scores (NDS) analyzed daily for 7 days beginning 2 hr post ROSC. Rats were fed a 50:50 mix of rodent chow and sugar mixed with water to create a soup, which was placed into small petri dishes to allow animals to self-feed. Animals that were unable to feed themselves were assisted via spoon-feeding. Spoon-feeding involved using a gavage needle and a 3 cc syringe to slowly and carefully inject the liquid soup material into the rat's mouth allowing their “swallow-reflex” to determine how much food was given.
# Behavioral Neurological Deficit Scores (NDS) were taken daily for 7 days after asphyxial cardiac arrest to assess injury. The total NDS consists of five components: consciousness and respiration, cranial nerve function, motor function, sensory function, and coordination (leg/tail movement, cleaning, depth perception, and righting reflex) as previously described in Katz et al., 1995). The NDS range is a scale between 0 (normal function) to 100 (brain dead). […]
# [7] = stated as approximated by the 4 hr injection interval; cited from earlier work
# [8] = rabbit; Liu G S et al., 1991; cited from earlier work
# [9] = 8-SPT 25 mg/kg i.p. in CHA treated animals, Ta 25° C.
compound,measurement,setting,value
"OC[C@H]1O[C@@H](n2cnc3c(NC4CCCCC4)ncnc32)[C@H](O)[C@@H]1O [CHA, N^6-cyclohexyladenosine]",torpor induction in summer,[1]; summer,not in summer
same,torpor induction in winter,[1]; winter,induces torpor
same,maximal response to a low (non-torpor inducing) dose,[2],greater when tested during a trough than when tested during a peak
same,Tb on repeated injection,"Male Sprague-Dawley rats [3]; CHA 1.0 mg/kg i.p. at 4 hr intervals, 6 injections, 8-SPT 15 min prior, Ta 16° C.",steady minimum in Tb after the fourth injection
same,Tb decreased to,"Male Sprague-Dawley rats [3]; CHA 1.0 mg/kg i.p., 8-SPT 25 mg/kg i.p. 15 min prior, Ta 16° C., FIG. 4A",33 °C
same,time to decrease of Tb to 33° C.,"Male Sprague-Dawley rats [3]; CHA 1.0 mg/kg i.p., 8-SPT 15 min prior, Ta 16° C.",≤ 1 h
same,heart rate at 24 hr,"Male Sprague-Dawley rats [3]; CHA-treated rats, 4 hr after last 8-SPT and CHA injection, FIG. 4C","slight, but statistically significant bradycardia"
same,time to rewarm after moving to Ta of 20° C.,"Male Sprague-Dawley rats [3]; after 6 injections of CHA and 8-SPT, no other means of rewarming",≤ 3.5 h
same,adverse events after rewarming,Male Sprague-Dawley rats [3]; after 24 hr CHA and 8-SPT at Ta 16° C.,without evidence of significant adverse events
same,heart rate 5.5 hr after the last CHA injection,"Male Sprague-Dawley rats [3]; after rewarming, FIG. 4C",remained significantly elevated
same,neurological deficit scores (NDS),"Male Sprague-Dawley rats [3]; during hypothermia, FIG. 4B",increased
same,magnitude of cooling at a given dose,"[4]; dietary restriction (every other day feeding) vs ad libitum, CHA 0.5 mg/kg with 8-SPT",enhanced following DR
same,Tb in conscious rats,"[4]; repeated co-administration: 8-SPT 2.5 mg/kg i.p. 15 min prior to CHA 0.5 mg/kg i.p., 4 hr intervals, Ta 16° C.",immediate decrease in Tb
same,sO2,Male Sprague-Dawley rats [5]; continuous CHA at Ta 16° C. and 25° C.,no effect
same,heart rate,"Male Sprague-Dawley rats [5]; continuous CHA at Ta 16° C. and 25° C. vs CD vehicle, p<0.01",decreased
same,mean minimum Tb,Male Sprague-Dawley rats [5]; Ta 16° C.,29.3±0.3 °C
same,mean minimum Tb,Male Sprague-Dawley rats [5]; Ta 25° C.,35.6±0.12 °C
same,number of healthy neurons per mm of CA1 (mean±SEM),"[6]; TH group n=3, 8 days after 8 min asphyxial CA, naïve 180.8±12.3, normothermic control 47.8",135.5±4.6
same,survival to 8 days,"[6]; TH group, n=3, 1 of 3 survived in normothermic control group",3 rats
same,individual Tb minima,"[6]; TH group, n=3",29.7±0.3 °C
same,time to Tb of 31.0 to 31.6° C. after CHA injection,"[6]; TH group, n=3",≤ 3 h
same,time to rewarm without intervention after transfer to Ta of 20° C.,"[6]; TH group, transfer 4 hr after last CHA injection",≤ 5 h
same,time at which Tb reached a minimum after ROSC,[6]; cooling initiated 70 min post ROSC,12 h
same,post-operative recovery,[6]; hypothermia group,recovered without need for post-op care
same,half-life,[7],~4 h
"Cn1c(=O)c2[nH]c(-c3ccc(S(=O)(=O)O)cc3)nc2n(C)c1=O [8-SPT, 8-p-sulfophenyltheophylline]",half-life,[8],0.75 h
same,influence on Tb,"Male Sprague-Dawley rats [5]; 8-SPT 25 mg/kg i.p. in CHA treated animals, Ta 16° C.",no influence on Tb
same,heart rate,Male Sprague-Dawley rats [5]; [9],"small, but significant increase"
same,influence on Tb,Male Sprague-Dawley rats [5]; [9],no influence on Tb
same,increase in heart rate,"Male Sprague-Dawley rats [5]; 8-SPT 25 mg/kg i.p. in animals treated with continuous CHA, Ta 16° C.",2 fold
same,heart rate in control animals,"Male Sprague-Dawley rats [5]; 8-SPT in control (CD treated) animals, Ta 16° C., saline vehicle did the same",increased heart rate
same,heart rate or Tb in control animals,"Male Sprague-Dawley rats [5]; 8-SPT in control (CD treated) animals, Ta 25° C.",no effect on heart rate or Tb
same,time for effects of 8-SPT to subside,"Male Sprague-Dawley rats [5]; after 8-SPT 25 mg/kg i.p., Ta 16° C.",≤ 60 min

# From patent publication US10092591B2, “Methods and compositions for the treatment of ischemic injury to tissue using therapeutic hypothermia” (University of Alaska Fairbanks, priority 2014, dated 2018)
